Test results reported in patent publication US10918645B2 (LIFEARC, priority 2016, dated 2021).

Experiments:
Assay type in all cases: biochemical
[1] = target: JNK1 (Homo sapiens (Human), UniProt P45983); test: JNK1 kinase selectivity assay; conditions: 1 μM inhibitor concentration
Description: JNK1a1/SAPK1c (5-20 mU diluted in 50 mM Tris pH 7.5, 0.1 mM EGTA, 1 mg/ml BSA, 0.1% b-mercaptoethanol) is assayed against ATF2 (activating transcription factor in a final volume of 25.5 μl in 50 mM Tris pH 7.5, 0.1 mM EGTA, 0.1% b-Mercaptoethanol, ATF2 (3 μM), 10 mM magnesium acetate and 0.02 mM [33P-g-ATP] (500-1000 cpm/pmole) and incubated for 30 min at room temperature. Assays are stopped by addition of 5 μl of 0.5 M (3%) orthophosphoric acid and then harvested onto P81 Unifilter plates with a wash buffer of 50 mM orthophosphoric acid.

[2] = target: MST4 (Homo sapiens (Human), UniProt Q9P289); test: MST4 kinase selectivity assay; conditions: 1 μM inhibitor concentration
Description: 5-20 mU of MST4 (diluted in 50 mM Tris (pH 7.5), 0.1 mM EGTA) is assayed against MBP in a final volume of […] containing 50 mM Tris (pH 7.5), 0.1 mM EGTA, 0.33 mg/ml MBP, 10 mM magnesium acetate and 0.02 mM [33P-g-ATP](500-1000 cpm/pmole) and incubated for 30 mins at room temperature. Assays are stopped by addition of […] of 0.5M (3%) orthophosphoric acid. Assays are harvested onto P81 Unifilter plates using a wash buffer of 50 mM orthophosphoric acid.

[3] = target: IRAK4 (Homo sapiens (Human), UniProt Q9NWZ3); test: IRAK4 kinase selectivity assay; conditions: 1 μM inhibitor concentration
Description: (§1) IRAK4 (5-20 mU diluted in 50 mM Tris pH 7.5, 0.1 mM EGTA, 0.1% 0-mercaptoethanol, 1 mg/ml BSA) is assayed against MBP in a final volume of 25.5 μl containing 50 mM Tris pH 7.5, 0.1 mM EGTA, 0.33 mg/ml MBP, 10 mM magnesium acetate and 0.02 mM [33P-γ-ATP] (50-1000 cpm/pmole) and incubated for 30 min at room temperature. Assays are stopped by addition of 5 μl of 0.5 M (3%) orthophosphoric acid and then harvested onto P81 Unifilter plates with a wash buffer of 50 mM orthophosphoric acid.

[4] = target: ULK1 (Homo sapiens (Human), UniProt O75385); test: ULK1 kinase selectivity assay; conditions: 1 μM inhibitor concentration
[5] = target: YES1 (Homo sapiens (Human), UniProt P07947); test: YES1 kinase selectivity assay; conditions: 1 μM inhibitor concentration
Description: as §1, with “YES1” for “IRAK4”, “EGTA,” for “EGTA, 0.1% 0-mercaptoethanol,”, “a substrate peptide (Poly Glut Tyr)” for “MBP”, “1” for “0.1 mM EGTA, 0.33”, “substrate peptide,” for “MBP,”, “[33P-g-ATP]” for “[33P-γ-ATP]”

[6] = target: JAK2 (Homo sapiens (Human), UniProt O60674); test: JAK2 kinase selectivity assay (33P panel); conditions: 1 μM inhibitor concentration
Description: as §1, with “JAK2” for “IRAK4”, “0.05%” for “0.1%”, “PDKtide ([…]-[…])” for “MBP”, “0.05% 0-mercaptoethanol, 100 μM substrate peptide,” for “0.33 mg/ml MBP,”, “0.005” for “0.02”, “temperature” for “temperature.”

[7] = target: IGF-1R (Homo sapiens (Human), UniProt P08069); test: IGF-1R kinase selectivity assay; conditions: 1 μM inhibitor concentration
Description: as §1, with “IGF-1R” for “IRAK4”, “EGTA,” for “EGTA, 0.1% 0-mercaptoethanol,”, “a substrate peptide ([…])” for “MBP”, “300 µM substrate peptide,” for “0.1 mM EGTA, 0.33 mg/ml MBP,”, “0.005” for “0.02”, “[33P-g-ATP]” for “[33P-γ-ATP]”

[8] = target: LRRK2 G2019S (Homo sapiens (Human), UniProt Q5S007, G2019S); test: Adapta Kinase Assay (LRRK2_IC50 assay); conditions: inhibition of LRRK2 G2019S
Description: In Adapta™ Kinase Assay (LRRK2_IC50 assay): the Kinase Reaction Buffer contained 5× Kinase Buffer S (Life Technologies, PV5213) and 2 mM DTT (Life Technologies, P2325).
The Adapta® universal kinase assay is a homogenous, fluorescent based immunoassay for the detection of ADP. In contrast to ATP depletion assays, the Adapta® assay is extremely sensitive to ADP formation such that a majority of the signal change occurs in the first 10-20% conversion of ATP to ADP. This makes the Adapta® universal kinase assay ideally suited for use with low activity kinases.
Prepare a 1× solution of kinase reaction buffer from the 5× Kinase Buffer S stock (listed above) by adding 2 ml of 5× stock to 8 ml of H2O to make 10 ml of 1× kinase reaction buffer. To this, add 20 μl of 1 M DTT.
Kinase reactions are performed in a 10 μl volume in low-volume 384-well plates. […] Other non—treated assay plates, while not tested, may also be suitable. The concentration of substrate in the assay is 100 μM, and the 1× kinase reaction buffer consists of 50 mM Tris-HCl pH8.5, 10 mM MgCl2, 1 mM EGTA, 0.01% Brij-35, and 2 mM DTT, plus any additional additives that may be required for a specific kinase. […] The plate is allowed to equilibrate at room temperature for at least 30 minutes before being read on a plate reader configured for Adapta™ TR-FRET.
The data presented in this document were generated using a BMG LABTECH PHERAstar plate reader using the appropriate filters and instrument settings for Adapta™. The Test Compounds are screened in 1% DMSO (final) in the well. For 8 point titrations, 5-fold serial dilutions are conducted from the starting concentration.
IC50 estimates were obtained using the software XLfit (IDBS Inc.).

Chain of IGF-1R (P08069 31-1367, species assumed): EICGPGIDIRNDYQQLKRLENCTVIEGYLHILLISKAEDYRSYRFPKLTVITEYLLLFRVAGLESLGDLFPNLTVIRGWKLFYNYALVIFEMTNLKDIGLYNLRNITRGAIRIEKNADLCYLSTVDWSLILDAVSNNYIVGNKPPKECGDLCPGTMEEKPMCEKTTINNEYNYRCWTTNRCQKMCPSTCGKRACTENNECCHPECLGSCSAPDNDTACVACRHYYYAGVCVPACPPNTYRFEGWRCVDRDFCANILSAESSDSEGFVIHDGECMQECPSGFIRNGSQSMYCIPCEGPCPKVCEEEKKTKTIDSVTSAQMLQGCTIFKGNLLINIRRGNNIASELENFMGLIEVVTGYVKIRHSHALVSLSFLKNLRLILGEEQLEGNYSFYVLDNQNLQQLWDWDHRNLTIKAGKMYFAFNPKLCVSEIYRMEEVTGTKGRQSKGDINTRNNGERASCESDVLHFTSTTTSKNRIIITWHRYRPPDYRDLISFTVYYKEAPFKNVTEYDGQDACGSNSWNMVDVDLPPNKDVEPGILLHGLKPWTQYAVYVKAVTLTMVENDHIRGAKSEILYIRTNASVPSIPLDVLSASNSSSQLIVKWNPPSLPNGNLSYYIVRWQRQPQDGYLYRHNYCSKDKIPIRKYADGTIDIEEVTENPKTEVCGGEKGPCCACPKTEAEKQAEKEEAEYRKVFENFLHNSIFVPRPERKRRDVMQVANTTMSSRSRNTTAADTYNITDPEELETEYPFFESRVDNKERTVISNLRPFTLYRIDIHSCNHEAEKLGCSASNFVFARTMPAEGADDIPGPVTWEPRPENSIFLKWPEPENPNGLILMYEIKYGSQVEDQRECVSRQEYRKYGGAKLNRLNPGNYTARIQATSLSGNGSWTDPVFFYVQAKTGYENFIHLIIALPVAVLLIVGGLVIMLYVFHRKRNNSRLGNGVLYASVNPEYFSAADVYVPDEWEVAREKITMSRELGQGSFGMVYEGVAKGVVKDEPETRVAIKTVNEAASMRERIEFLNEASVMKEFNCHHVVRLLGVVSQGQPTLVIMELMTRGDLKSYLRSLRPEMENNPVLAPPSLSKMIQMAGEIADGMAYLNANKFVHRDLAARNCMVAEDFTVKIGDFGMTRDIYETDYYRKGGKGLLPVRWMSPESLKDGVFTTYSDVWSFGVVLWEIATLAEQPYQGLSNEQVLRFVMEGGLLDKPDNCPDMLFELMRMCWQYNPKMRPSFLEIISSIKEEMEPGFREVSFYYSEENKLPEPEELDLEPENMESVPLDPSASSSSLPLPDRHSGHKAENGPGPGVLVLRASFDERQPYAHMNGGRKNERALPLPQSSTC
Chain of MST4 (Q9P289 whole entry, species assumed): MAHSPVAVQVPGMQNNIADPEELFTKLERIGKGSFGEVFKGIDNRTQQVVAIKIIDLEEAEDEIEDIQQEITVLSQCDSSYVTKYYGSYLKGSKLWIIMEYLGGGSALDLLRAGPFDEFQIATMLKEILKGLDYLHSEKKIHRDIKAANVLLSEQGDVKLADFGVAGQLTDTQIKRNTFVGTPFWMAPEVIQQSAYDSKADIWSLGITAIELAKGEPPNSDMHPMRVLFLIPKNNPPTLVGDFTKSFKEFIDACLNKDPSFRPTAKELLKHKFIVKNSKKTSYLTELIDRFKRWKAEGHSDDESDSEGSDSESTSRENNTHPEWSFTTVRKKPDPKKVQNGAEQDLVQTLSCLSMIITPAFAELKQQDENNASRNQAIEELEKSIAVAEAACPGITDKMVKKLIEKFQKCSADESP
Chain of ULK1 (O75385 whole entry, species assumed): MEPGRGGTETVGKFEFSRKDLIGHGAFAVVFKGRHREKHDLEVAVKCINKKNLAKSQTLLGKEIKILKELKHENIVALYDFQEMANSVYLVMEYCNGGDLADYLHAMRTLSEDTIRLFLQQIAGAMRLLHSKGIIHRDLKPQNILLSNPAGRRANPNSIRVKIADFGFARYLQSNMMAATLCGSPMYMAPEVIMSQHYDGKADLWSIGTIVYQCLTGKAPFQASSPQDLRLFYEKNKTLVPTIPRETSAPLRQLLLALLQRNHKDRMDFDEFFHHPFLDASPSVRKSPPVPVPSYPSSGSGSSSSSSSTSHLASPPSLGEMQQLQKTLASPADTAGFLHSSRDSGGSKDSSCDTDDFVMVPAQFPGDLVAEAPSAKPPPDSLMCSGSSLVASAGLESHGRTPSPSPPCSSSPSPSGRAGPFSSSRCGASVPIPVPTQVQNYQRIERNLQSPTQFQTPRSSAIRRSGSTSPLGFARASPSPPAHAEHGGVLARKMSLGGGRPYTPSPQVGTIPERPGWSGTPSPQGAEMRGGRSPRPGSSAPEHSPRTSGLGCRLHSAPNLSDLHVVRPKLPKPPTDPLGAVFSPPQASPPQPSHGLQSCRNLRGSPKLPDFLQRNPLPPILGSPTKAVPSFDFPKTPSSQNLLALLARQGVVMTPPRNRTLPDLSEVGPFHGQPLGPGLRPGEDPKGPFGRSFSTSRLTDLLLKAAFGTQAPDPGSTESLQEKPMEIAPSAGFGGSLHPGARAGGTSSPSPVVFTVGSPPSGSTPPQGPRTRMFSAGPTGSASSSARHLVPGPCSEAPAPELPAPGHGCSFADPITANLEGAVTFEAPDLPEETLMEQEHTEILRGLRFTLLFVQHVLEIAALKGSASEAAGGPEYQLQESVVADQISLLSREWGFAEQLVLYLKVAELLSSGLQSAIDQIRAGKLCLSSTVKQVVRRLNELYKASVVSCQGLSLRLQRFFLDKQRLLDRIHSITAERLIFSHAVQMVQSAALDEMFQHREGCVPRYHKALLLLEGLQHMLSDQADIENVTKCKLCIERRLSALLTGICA
Chain of YES1 (P07947 whole entry, species assumed): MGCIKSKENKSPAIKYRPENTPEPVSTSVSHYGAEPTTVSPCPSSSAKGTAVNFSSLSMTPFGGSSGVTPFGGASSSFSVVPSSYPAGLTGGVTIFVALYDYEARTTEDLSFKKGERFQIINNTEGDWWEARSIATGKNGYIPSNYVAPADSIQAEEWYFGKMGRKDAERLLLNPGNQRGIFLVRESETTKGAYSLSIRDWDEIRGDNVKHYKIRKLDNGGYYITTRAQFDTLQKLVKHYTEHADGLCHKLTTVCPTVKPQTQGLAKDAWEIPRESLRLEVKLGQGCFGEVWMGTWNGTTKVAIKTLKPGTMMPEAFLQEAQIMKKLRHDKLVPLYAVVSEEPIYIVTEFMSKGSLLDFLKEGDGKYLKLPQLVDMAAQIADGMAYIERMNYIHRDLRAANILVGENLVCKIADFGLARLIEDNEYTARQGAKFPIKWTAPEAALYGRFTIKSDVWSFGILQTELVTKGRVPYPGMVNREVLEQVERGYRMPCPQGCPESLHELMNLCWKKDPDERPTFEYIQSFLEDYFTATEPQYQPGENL
Chain of JNK1 (P45983 other isoform, or with tags, fused parts or gaps, species assumed): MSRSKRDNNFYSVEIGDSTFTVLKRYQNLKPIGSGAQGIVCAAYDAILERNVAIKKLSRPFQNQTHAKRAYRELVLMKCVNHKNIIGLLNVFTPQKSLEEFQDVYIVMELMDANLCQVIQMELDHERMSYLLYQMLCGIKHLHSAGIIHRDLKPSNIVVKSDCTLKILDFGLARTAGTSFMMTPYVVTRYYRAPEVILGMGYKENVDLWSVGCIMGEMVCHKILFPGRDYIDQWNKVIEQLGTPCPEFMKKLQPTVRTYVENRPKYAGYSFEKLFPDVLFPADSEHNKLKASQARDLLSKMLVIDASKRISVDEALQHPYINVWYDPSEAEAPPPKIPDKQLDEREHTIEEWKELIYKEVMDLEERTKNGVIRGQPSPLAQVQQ
Chain of IRAK4 (Q9NWZ3 whole entry, species assumed): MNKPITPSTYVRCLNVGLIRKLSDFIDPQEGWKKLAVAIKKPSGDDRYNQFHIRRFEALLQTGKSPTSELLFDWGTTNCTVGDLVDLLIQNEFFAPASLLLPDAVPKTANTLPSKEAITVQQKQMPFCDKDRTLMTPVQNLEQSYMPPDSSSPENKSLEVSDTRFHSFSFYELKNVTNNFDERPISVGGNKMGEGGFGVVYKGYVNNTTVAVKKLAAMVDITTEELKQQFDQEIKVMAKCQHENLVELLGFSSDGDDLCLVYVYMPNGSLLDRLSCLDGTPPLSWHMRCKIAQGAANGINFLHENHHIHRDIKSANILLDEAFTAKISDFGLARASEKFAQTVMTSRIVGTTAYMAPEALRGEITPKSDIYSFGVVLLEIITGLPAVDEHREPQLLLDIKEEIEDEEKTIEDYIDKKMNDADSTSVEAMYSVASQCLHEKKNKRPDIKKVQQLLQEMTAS

## c1cc2[nH]nc3c2c(n1)N(C1CCC1)CCC3 [Example 22, 6-cyclobutyl-6,7,8,9-tetrahydro-2H-1,2,5,6-tetraazabenzo[cd]azulene]
[1]
  percentage inhibition of JNK1: 0 percentage
[2]
  percentage inhibition of MST4: 6 percentage
[3]
  percentage inhibition of IRAK4: 13 percentage
[4]
  percentage inhibition of ULK1: 14 percentage
[5]
  percentage inhibition of YES1: 0 percentage
[6]
  percentage inhibition of JAK2: 5 percentage
[7]
  percentage inhibition of IGF-1R: 9 percentage

## c1cc2[nH]nc3c2c(n1)N(C1CCCC1)CCC3 [Example 23, 6-cyclopentyl-6,7,8,9-tetrahydro-2H-1,2,5,6-tetraazabenzo[cd]azulene]
[1]
  percentage inhibition of JNK1: 0 percentage
[2]
  percentage inhibition of MST4: 0 percentage
[3]
  percentage inhibition of IRAK4: 0 percentage
[4]
  percentage inhibition of ULK1: 0 percentage
[5]
  percentage inhibition of YES1: 0 percentage
[6]
  percentage inhibition of JAK2: 12 percentage
[7]
  percentage inhibition of IGF-1R: 2 percentage

## c1cc2[nH]nc3c2c(n1)N(C1CCOCC1)CCC3 [Example 29, 6-(tetrahydro-2H-pyran-4-yl)-6,7,8,9-tetrahydro-2H-1,2,5,6-tetraazabenzo[cd]azulene]
[8]
  IC50: 150 nM
[1]
  percentage inhibition of JNK1: 0 percentage
[2]
  percentage inhibition of MST4: 1 percentage
[3]
  percentage inhibition of IRAK4: 15 percentage
[4]
  percentage inhibition of ULK1: 5 percentage
[5]
  percentage inhibition of YES1: 0 percentage
[7]
  percentage inhibition of IGF-1R: 9 percentage

## CN1CCC(N2Cc3ccccc3-c3n[nH]c4ccnc2c34)CC1 [Example 55]
[8]
  IC50: 50 nM
[1]
  percentage inhibition of JNK1: 49 percentage
[2]
  percentage inhibition of MST4: 0 percentage
[3]
  percentage inhibition of IRAK4: 9 percentage
[4]
  percentage inhibition of ULK1: 20 percentage
[5]
  percentage inhibition of YES1: 16 percentage
[7]
  percentage inhibition of IGF-1R: 8 percentage

## CC(C)n1ncc2c1CN(C1CCN(C)CC1)c1nccc3[nH]nc-2c13 [Example 68]
[1]
  percentage inhibition of JNK1: 48 percentage
[2]
  percentage inhibition of MST4: 0 percentage
[3]
  percentage inhibition of IRAK4: 14 percentage
[4]
  percentage inhibition of ULK1: 30 percentage
[5]
  percentage inhibition of YES1: 5 percentage
[7]
  percentage inhibition of IGF-1R: 0 percentage
